Where only a bound is given, the exact number is not on record here.

Our source for the IC50 and Selectivity values is patent EP4389746A2, “P2X3 RECEPTOR ANTAGONISTS” (Recordati Industria Chimica E Farmaceutica SPA, priority 2022, dated 2024).

The target in one experiment is T1, human P2X3 receptor (Homo sapiens, UniProt P56373).
T1 construct: expressed in transfected cells; host or cells: CHO-K1
T1 sequence (P56373 1-397): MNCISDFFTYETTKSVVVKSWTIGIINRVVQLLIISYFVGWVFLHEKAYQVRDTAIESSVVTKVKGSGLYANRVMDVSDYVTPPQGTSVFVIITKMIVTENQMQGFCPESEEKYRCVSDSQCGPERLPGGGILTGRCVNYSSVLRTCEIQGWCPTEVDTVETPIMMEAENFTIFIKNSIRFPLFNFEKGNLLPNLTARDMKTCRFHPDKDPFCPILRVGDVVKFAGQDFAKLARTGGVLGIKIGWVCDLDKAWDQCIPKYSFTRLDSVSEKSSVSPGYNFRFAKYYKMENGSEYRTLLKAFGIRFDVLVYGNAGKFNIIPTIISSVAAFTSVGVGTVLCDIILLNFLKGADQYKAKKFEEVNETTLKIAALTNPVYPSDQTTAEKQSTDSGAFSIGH
Description: Calcium luminescence measurement: human P2X3 receptor activity inhibition (CHO-K1 cells, photoprotein readout, FLEXSTATION). It counts as cell-based. Conditions: CHO-K1 cells co-expressing human P2X3 and Ca2+ sensitive photoprotein; agonist α,β-Met-ATP; read-out: h-P2X3 IC50. Here is the method: Determination of human P2X3 receptor activity inhibition
The assay for the human purinergic P2RX3 receptor has been adapted to the internal screening instrumentation using the FLEXSTATION as reader and a photoprotein as luminescent readout. The assay consists of CHO-K1 cells recombinantly co-expressing the human P2rx3 receptor and a Ca^2+ sensitive photoprotein. Cells are maintained in DMEM F-12 (1:1) mixture (LONZA cat. n° BE04-687F/U1) supplemented with 9 mL of 100 mM Sodium Pyruvate (LONZA cat. n° BE13-115E), 29 mL of 7.5% Sodium Bicarbonate (LONZA cat. n° BE17-613E), 5.5 mL of 1 M Hepes (LONZA cat. n° BE17-737E), 5 mL of 100X Penicillin/Streptomycin mixture (LONZA cat. n° DE17-602E) and 50 mL of Fetal Bovine Serum (Sigma cat. n° F7524), 1 mg/mL G418 disulfate salt (Sigma cat. n° G8168) and 5 µg/ml Puromycin dihydrochloride (Sigma cat. n° P9620). Standard propagation conditions consist of seeding in a P75 flask twice a week, recovering about 20×10^6 cells, corresponding to about 80% confluency. Cells were seeded into black-walled clear bottom 96 well plates at a density of 40000 cells/well in a complete medium. After 24 h the culture medium was replaced with 200 µL/well of coelenterazine in Tyrode's buffer (Standard Tyrode's buffer: in house solution, 130 mM NaCl, 5 mM KCl, 2 mM CaCl2, 5 mM NaHCO3, 1 mM MgCl2, 20 mM HEPES, pH 7.4). Coelenterazine was purchased from BIOSYNTH (cat. n° C-7001). 10 mM stock solution was prepared in DMSO and glutathione and stored at -20° C. The plates were incubated for 4 hours at 37°C, and injected with 10 µL/well of test compounds at 25X concentration in Tyrode's buffer. After 4 minutes a second injection of 50 µL/well of 5X α,β-Met-ATP in Tyrode's buffer (α,β-Met-ATP: from Tocris (cat. n° 3209), was dissolved at 100 mM in water and stored in aliquots at -20°C) was performed and the signal of the emitted luminescence was recorded by FLEXSTATION III (Molecular Devices). […]
The inhibition curves of the tested compounds at cloned P2X3 receptor were determined by nonlinear regression analysis using software Prism 5.0 (Graphpad, San Diego, CA). The IC50 values and pseudo-Hill slope coefficients were estimated by the program.

The next experiment concerns the target T2, human P2X2/3 receptor (Homo sapiens, UniProt P56373+Q9UBL9).
T2 construct: expressed in transfected cells; host or cells: CHO-K1
T2 sequence (P56373 1-397): T1 sequence (P56373 1-397)
T2 sequence (Q9UBL9 1-471): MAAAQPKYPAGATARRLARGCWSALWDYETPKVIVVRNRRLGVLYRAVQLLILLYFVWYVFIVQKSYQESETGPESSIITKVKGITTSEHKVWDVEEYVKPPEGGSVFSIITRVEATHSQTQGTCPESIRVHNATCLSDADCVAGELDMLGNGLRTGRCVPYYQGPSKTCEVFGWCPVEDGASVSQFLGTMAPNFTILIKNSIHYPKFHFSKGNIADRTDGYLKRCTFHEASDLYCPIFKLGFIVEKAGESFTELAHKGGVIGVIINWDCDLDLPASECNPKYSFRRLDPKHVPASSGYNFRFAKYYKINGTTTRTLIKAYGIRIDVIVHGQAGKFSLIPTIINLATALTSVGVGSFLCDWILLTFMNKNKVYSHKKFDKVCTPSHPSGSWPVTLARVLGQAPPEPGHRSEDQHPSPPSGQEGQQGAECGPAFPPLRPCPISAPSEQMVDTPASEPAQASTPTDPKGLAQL
Description: Calcium fluorescence measurement: human P2X2/3 receptor activity inhibition (CHO-K1 cells, Fluo-8 NoWash, […]). It counts as cell-based. The note with it: for IC50: CHO-K1 cells expressing human P2RX2/X3 channel, 10µM α,β-Met-ATP, read-out: h-P2X2/3 IC50; for Selectivity: ratio of IC50 of P2X2/3/ P2X3 receptors. The procedure: Determination of human P2X2/3 receptor activity inhibition
The assay for the human P2RX2/X3 has been evaluated by the screening instrumentation using the […] as reader and the FLUO8-NoWash dye as fluorescent readout for calcium detection.
CHO-K1 cells recombinantly expressing the human P2RX2/X3 channel are maintained in DMEM F-12 (1:1) mixture (LONZA cat. n°: BE04-687F/U1) supplemented with 5 mL of 100 mM Sodium Pyruvate (LONZA cat. n° BE13-115E), 25 mL of 7.5% Sodium Bicarbonate (LONZA cat. n° BE17-613E), 6.5 mL of 1M Hepes (LONZA cat. n° BE17-737E), 5 mL of 100X Penicillin/Streptomycin mixture (LONZA cat. n° DE17-602E) and 50 mL of Fetal Bovine Serum (Sigma cat. n° F7524), 5 µg/mL Puromycin dihydrochloride (Sigma cat. n° P9620) and 1 mg/ml G418 disulfate salt (Sigma cat. n° G8168).
Cells were seeded into black-walled clear bottom 384 Multiwell plates at a density of 10.000 cells/well in complete medium. After 24 h the culture medium was replaced with 20 µL/well of Fluo-8 NoWash calcium sensitive dye (AAT Bioquest cat. n° 36316) diluted in Tyrode's buffer (Standard Tyrode's buffer: in house solution, 130 mM NaCl, 5 mM KCl, 2 mM CaCl2, 5 mM NaHCO3, 1 mM MgCl2, 20 mM HEPES, pH 7.4).
The plates were incubated for 1 hours at 37°C and injected with 10 µL/well of test compounds at 3X concentration in Tyrode's buffer with the […]. After 5 minutes a second injection of 15 µL/well of 10µM α,β-Met-ATP in Tyrode's buffer (α,β-Met-ATP: from Tocris cat. n° 3209) was performed and the signal of the emitted fluorescence was recorded by […] (Molecular Devices).
The selectivity is expressed as the ratio of IC50 of P2X2/3/ P2X3 receptors. Table 8: Human P2X3 and h-P2X2/3 receptor antagonist activity for selected compounds of the invention.

For the compound `CC(C)C1CN2C(=O)N(Cc3ccc(Cl)cc3)c3cc(N4CCOCC4)cnc3C2=N1` (racemic) [Example 9, 6-[(4-Chlorophenyl)methyl]-8-(morpholin-4-yl)-2-(propan-2-yl)-2,6-dihydroimidazo[1,2-c]pyrido[2,3-e]pyrimidin-5(3H)-one], the IC50 on human P2X3 receptor was determined as 167 nM. In addition, at human P2X2/3 receptor, the IC50 was determined as 7410 nM and the Selectivity was 44.
Turning to `COC(C)(C)C1CN2C(=O)N(Cc3ccc(Cl)cc3)c3cc(N4CCOCC4)cnc3C2=N1` (stereo not drawn) [Example 5, 6-(4-Chlorobenzyl)-2-(2-methoxypropan-2-yl)-8-(morpholin-4-yl)-2,6-dihydroimidazo[1,2-c]pyrido[2,3-e]pyrimidin-5(3H)-one], the IC50 at human P2X3 receptor was found to be 111 nM. Besides, on human P2X2/3 receptor, the IC50 is 19000 nM and the Selectivity is listed as 170.
For `CC(C)C1CN2C(=O)N(CC(=O)Nc3ccc(F)cn3)c3cc(N4CCOCC4)cnc3C2=N1` (stereo not drawn) [Example 6, N-(5-Fluoropyridin-2-yl)-2-[8-(morpholin-4-yl)-5-oxo-2-(propan-2-yl)-2,3-dihydroimidazo[1,2-c]pyrido[2,3-e]pyrimidin-6(5H)-yl]acetamide], in that order: 33.5 nM, 221 nM and 6.5.
As for `CC(C)(CO)C1CN2C(=O)N(Cc3ccc(Cl)cc3)c3cc(N4CCOCC4)nnc3C2=N1` (stereo not drawn) [Example 17, 5-[(4-Chlorophenyl)methyl]-9-(1-hydroxy-2-methylpropan-2-yl)-3-(morpholin-4-yl)-8,9-dihydroimidazo[1',2':1,6]pyrimido[5,4-c]pyridazin-6(5H)-one], the IC50 on human P2X3 receptor was 41.5 nM. Also, at human P2X2/3 receptor, the IC50 is more than 30000 nM and the Selectivity is more than 722.
For `COC(C)(C)C1CN2C(=O)N(Cc3ccc(Cl)cc3)c3cc(N4CCOCC4)nnc3C2=N1` (stereo not drawn) [Example 18, 5-[(4-Chlorophenyl)methyl]-9-(2-methoxypropan-2-yl)-3-(morpholin-4-yl)-8,9-dihydroimidazo[1',2':1,6]pyrimido[5,4-c]pyridazin-6(5H)-one], the IC50 on human P2X3 receptor is 46.4 nM; on human P2X2/3 receptor, more than 30000 nM. Moreover, the Selectivity on human P2X2/3 receptor is reported as more than 646.
In the case of `CC(C)(O)C1CN2C(=O)N(Cc3ccc(Cl)cc3)c3cc(N4CCOCC4)nnc3C2=N1` (stereo not drawn) [Example 19, 5-[(4-Chlorophenyl)methyl]-9-(2-hydroxypropan-2-yl)-3-(morpholin-4-yl)-8,9-dihydroimidazo[1',2':1,6]pyrimido[5,4-c]pyridazin-6(5H)-one], the IC50 at human P2X3 receptor was 31.2 nM. Also, at human P2X2/3 receptor, the IC50 was more than 30000 nM and the Selectivity is reported as more than 961.
As to `COc1ccc(CN2C(=O)N3C(=NC(=O)C3C(C)(C)C)c3ncc(N4CCOCC4)cc32)cc1` (stereo not drawn) [Example 20, 3-tert-Butyl-6-[(4-methoxyphenyl)methyl] -8-(morpholin-4-yl)imidazo[1,2-c]pyrido[2,3-e]pyrimidine-2,5(3H,6H)-dione], the figures for the IC50 at human P2X3 receptor and at human P2X2/3 receptor were 114 nM and 28500 nM, respectively. For the same compound, the Selectivity on human P2X2/3 receptor is 249.
Consider `CC(C)(C)C1C(=O)N=C2c3ncc(N4CCOCC4)cc3N(Cc3ccc(Cl)cc3)C(=O)N21` (stereo not drawn) [Example 21], for which the IC50 at human P2X3 receptor was 67 nM; on human P2X2/3 receptor, 3430 nM. Besides, the Selectivity on human P2X2/3 receptor was 51.
In the case of `CC(C)C1C(=O)N=C2c3ncc(N4CCC(O)CC4)cc3N(Cc3ccc(Cl)cc3)C(=O)N21` (stereo not drawn) [Example 26, 6-[(4-Chlorophenyl)methyl]-8-(4-hydroxypiperidin-1-yl)-3-(propan-2-yl)imidazo[1,2-c]pyrido[2,3-e]pyrimidine-2,5(3H,6H)-dione], the IC50 on human P2X3 receptor was 115 nM; at human P2X2/3 receptor, more than 30000 nM. In addition, at human P2X2/3 receptor, the Selectivity is on record as more than 260.
`COc1ccc(Cn2c(=O)n3c(C(C)(C)C)nnc3c3ncc(N4CCOCC4)cc32)cc1` [Example 29, 3-tert-Butyl-6-(4-methoxybenzyl)-8-(morpholin-4-yl)pyrido[2,3-e][1,2,4]triazolo[4,3-c]pyrimidin-5(6H)-one]: the IC50 on human P2X3 receptor was 34.8 nM. At human P2X2/3 receptor, the IC50 is 19700 nM and the Selectivity worked out at 566.
For `CC(C)(C)c1nnc2c3ncc(N4CCOCC4)cc3n(Cc3ccc(Cl)cc3)c(=O)n12` [Example 30, 3-tert-Butyl-6-[(4-chlorophenyl)methyl]-8-(morpholin-4-yl)pyrido[2,3-e][1,2,4]triazolo[4,3-c]pyrimidin-5(6H)-one], in that order: 64.3 nM, more than 30000 nM and more than 466.
As to `COC(C)(C)c1nnc2c3nnc(N4CCN(C(C)=O)CC4)cc3n(Cc3ccc(Cl)cc3)c(=O)n12` [Example 47, 8-(4-Acetylpiperazin-1-yl) -6-[(4-chlorophenyl)methyl]-3-(2-methoxypropan-2-yl)[1,2,4]triazolo[4',3': 1,6]pyrimido[5,4-c]pyridazin-5(6H)-one], the IC50 at human P2X3 receptor turned out to be 242 nM.
Turning to `CC(C)(C)c1nc2c3ncc(N4CCCC(O)C4)cc3n(Cc3ccc(Cl)cc3)c(=O)n2n1` (stereo not drawn) [Example 52, 2-tert-Butyl-6-[(4-chlorophenyl)methyl]-8-(3-hydroxypiperidin-1-yl)pyrido[2,3-e][1,2,4]triazolo[1,5-c]pyrimidin-5(6H)-one], at human P2X3 receptor, the IC50 stood at 215 nM.
Take `CC(C)(C)Cc1nc2c3nnc(N4CCOCC4)cc3n(Cc3ccc(Cl)cc3)c(=O)n2n1` [Example 54, 5-[(4-Chlorophenyl)methyl]-9-(2,2-dimethylpropyl)-3-(morpholin-4-yl)[1,2,4]triazolo[1',5':1,6]pyrimido[5,4-c]pyridazin-6(5H)-one]: the IC50 on human P2X3 receptor turned out to be 24.9 nM.
